Test results taken from paper PMC12051620, “Molecular basis underlying the specificity of an antagonist AA92593 for mammalian melanopsins” (The Journal of Biological Chemistry, 2025).

Experiments:
[1] = biological target: T1, mouse melanopsin F94^2.61C/S188^ECL2T/S269^6.52A mutant (Mus musculus, UniProt Q9QXZ9, F126C/S221T/S310A); test: GsX GloSensor assay with Gsα/q11; type: cell-based; details: 16.7 μM AA92593, COS-1 cells
T1 construct: expressed in transfected cells; host or cells: COS-1
Excerpt: (§1) The single substitutions F94^2.61C, S188^ECL2T, and S269^6.52A in mammalian melanopsins reduced the inhibitory effects of AA92593 (Figs. 2G and 3E). We suspected that the combination of these substitutions would further decrease the AA92593 effect. We thus introduced the triple substitutions F94^2.61C/S188^ECL2T/S269^6.52A into human and mouse melanopsins and examined the inhibitory effects of AA92593. In both mammalian melanopsins, the F94^2.61C/S188^ECL2T/S269^6.52A substitution reduced the inhibitory effect of AA92593 more than the single substitutions (∼63% and ∼35% reductions for human and mouse melanopsins, respectively) (Figs. 2, F and G, 3, D and E).
(§2) For GloSensor assay, opsins, GloSensor assay sensor (coded by pGlo-22F), and NanoBiT-tagged G proteins were transiently expressed in COS-1 cells (kindly provided from Dr David Farrens, Oregon Health and Science University) using PEI as described previously ([24], [52]). For the GsX GloSensor assay ([12], [13]), each well of a 96-well assay plate (Corning) was transfected with 50 ng opsin plasmid, 16.7 ng G protein plasmid, 50 ng pGlo-22F plasmid (Promega), and 500 ng PEI in 25 μl Opti-mem and 75 μl Dulbecco's modified Eagle's medium (D-MEM). […] For GFP-fluorescence microscopy, a 35-mm cell culture dish (IWAKI) was transfected with 2 μg melanopsin-GFP plasmid and 8 μg PEI in 400 μl Opti-mem and 1.2 ml D-MEM. […]

[2] = biological target: T2, human melanopsin F94^2.61C/S188^ECL2T/S269^6.52A mutant (Homo sapiens, UniProt Q9UHM6, F127C/S222T/S313A); test: GsX GloSensor assay with Gsα/q11; type: cell-based; details: 16.7 μM AA92593, COS-1 cells
T2 construct: expressed in transfected cells; host or cells: COS-1
T2 sequence (Q9UHM6 1-384 F127C/S222T/S313A): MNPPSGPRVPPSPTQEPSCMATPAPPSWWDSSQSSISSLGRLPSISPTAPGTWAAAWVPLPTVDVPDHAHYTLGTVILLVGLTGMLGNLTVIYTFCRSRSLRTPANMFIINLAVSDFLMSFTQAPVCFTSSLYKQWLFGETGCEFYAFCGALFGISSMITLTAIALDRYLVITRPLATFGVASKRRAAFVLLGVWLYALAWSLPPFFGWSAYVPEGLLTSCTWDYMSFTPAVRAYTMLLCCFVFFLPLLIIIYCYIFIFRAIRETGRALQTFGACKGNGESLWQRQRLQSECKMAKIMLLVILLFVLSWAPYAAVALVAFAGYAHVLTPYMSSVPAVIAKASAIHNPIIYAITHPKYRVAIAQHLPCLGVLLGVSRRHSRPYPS
Excerpt: as §1, §2

T1 sequence (Q9QXZ9 1-381 F126C/S221T/S310A): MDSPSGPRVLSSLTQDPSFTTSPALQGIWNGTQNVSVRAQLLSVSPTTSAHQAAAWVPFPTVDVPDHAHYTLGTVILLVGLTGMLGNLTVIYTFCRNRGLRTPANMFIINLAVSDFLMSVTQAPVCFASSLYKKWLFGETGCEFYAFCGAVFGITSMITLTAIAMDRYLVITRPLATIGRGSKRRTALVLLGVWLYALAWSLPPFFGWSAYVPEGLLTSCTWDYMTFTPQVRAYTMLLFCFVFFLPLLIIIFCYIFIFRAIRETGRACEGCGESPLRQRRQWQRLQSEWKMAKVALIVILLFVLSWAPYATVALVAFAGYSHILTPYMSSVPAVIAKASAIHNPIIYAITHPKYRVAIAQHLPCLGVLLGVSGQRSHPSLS

SMILES: COc1ccc(S(=O)(=O)N2CCCCC2)cc1C [AA92593]
- reduction of the inhibitory effect of AA92593 vs WT [1]: ~35%
- reduction of the inhibitory effect of AA92593 vs WT [2]: ~63%
